The values below come from patent US20160279110A1, “COMPOSITIONS AND METHODS FOR TREATING CANCER” (UNIVERSITY OF ROCHESTER, priority 2015, published 2016).

One series relates to caspases. In words: Caspase inhibitor pre-incubation before CHX, UPF1 CP western blot in HEK293T cells. The series is classed as cell-based, human. The note with it: inhibitor preincubated 4 h, then CHX 300 μg/ml. As to the method:
FIG. 3b is a diagram of N-terminally FLAG-tagged human UPF1, showing its reactivity with anti(α)-UPF1(1-416). CH, cysteine-t histidine-rich region. […] Blots are representative of two independent experiments.
Cells were lysed, and protein was isolated using hypotonic buffer that consists of 10 mM Tris-C1, pH 7.4, 10 mM NaCl, 2 mM EDTA, 0.5% Triton X-100, 2 mM benzamidine, 1 mM PMSF, NEM (50 μg/mL), 1× phosphatase inhibitor cocktail (Roche), and 1× protease inhibitor cocktail (Roche; Basel, Switzerland). After 10 minutes of incubation at 4° C., NaCl was added to 150 mM, and lysates were cleared by centrifugation. […] Immunoreactivity was assessed using SuperSignal West Pico or Femto (Pierce Biotechnology; Waltham, Mass.). […]
For orientation: In western blotting, separated proteins are transferred to a membrane and probed.

For series [1], the system named is UPF1. Nature of the series: Western blot of UPF1 CP generation in HEK293T cells. The class given is cell-based, human. The note with it: 300 μg/mL CHX or 1 μM staurosporine. As to the method: (§1) FIG. 10b is essentially as in a, but using lysates of HEK293T cells exposed to 1 μM staurosporine. FIG. 10c is essentially as in a, but using lysates of human Daudi B lymphoblasts exposed to 40 ng/mL TNF-α or 2 μg/mL doxorubicin. FIG. 10d is essentially as in a, but using lysates of human Jurkat T cells exposed to 1 μM staurosporine. FIG. 10e is essentially as in a, but using lysates of canine MDCK cells exposed to 2 μM staurosporine. FIG. 10f is essentially as in a, but using lysates of bovine MDBK cells exposed to 2 μM staurosporine. FIG. 10g is essentially as in a, but using lysates of Chinese Hamster Ovary (CHO) cells exposed to 2 μM staurosporine. FIG. 10h is essentially as in a, but using lysates of African green monkey COS-7 cells exposed to 2 μM staurosporine or 2 μg/mL doxorubicin. At least two apoptotic inducers were used for each cell line, and at least two cell lines were tested with each apoptotic inducer.
(§2) Cells were lysed, and protein was isolated using hypotonic buffer that consists of 10 mM Tris-C1, pH 7.4, 10 mM NaCl, 2 mM EDTA, 0.5% Triton X-100, 2 mM benzamidine, 1 mM PMSF, NEM (50 μg/mL), 1× phosphatase inhibitor cocktail (Roche), and 1× protease inhibitor cocktail (Roche; Basel, Switzerland). […] Immunoreactivity was assessed using SuperSignal West Pico or Femto (Pierce Biotechnology; Waltham, Mass.). […]

For series [2], the system named is UPF1. In words: Western blot of UPF1 CP generation in C2C12 myoblasts. The series is classed as cell-based, mouse. The note with it: C2C12, CHX 100 or 300 μg/ml, ETP 100 μM 5 h pulse. As to the method:
CHX concentrations were 100 or 300 μg ml^−1, and a 5 h pulse of ETP was used at 100 μM. At least two apoptotic inducers were used for each cell line, and at least two cell lines were tested with each apoptotic inducer.
Cells were lysed, and protein was isolated using hypotonic buffer that consists of 10 mM Tris-C1, pH 7.4, 10 mM NaCl, 2 mM EDTA, 0.5% Triton X-100, 2 mM benzamidine, 1 mM PMSF, NEM (50 μg/mL), 1× phosphatase inhibitor cocktail (Roche), and 1× protease inhibitor cocktail (Roche; Basel, Switzerland). After 10 minutes of incubation at 4° C., NaCl was added to 150 mM, and lysates were cleared by centrifugation. […] Immunoreactivity was assessed using SuperSignal West Pico or Femto (Pierce Biotechnology; Waltham, Mass.).

Series [3] relates to UPF1. Nature of the series: Western blot of UPF1 CP generation in HeLa cells. The class given is cell-based, human. As to the method: […] At least two apoptotic inducers were used for each cell line, and at least two cell lines were tested with each apoptotic inducer.
UPF1 CP may result from cleavage of endogenous UPF1 or the transfected construct, but the use of anti-FLAG allows unambiguous assignment of UPF1-FLAG CP as derived from MYC-UPF1-FLAG. α, anti; h, hour(s). […] To serve as molecular weight standards for UPF1 CP, lysates of MCF7 cells transiently expressing a UPF1-FLAG protein encompassing the residues specified were also analyzed. […] The D37 cleavage site encompassing P4-P1 residues is boxed. […] Immunoblots are representative of at least 2 independent experiments.
as §2
Inventories of in vivo apoptotic cleavage events indicate that cleavage specificity in living cells is determined chiefly by an aspartic acid residue at the P1 position; P4-P2 residues contribute far less to specificity in cells than is indicated by in vitro-derived peptide-based substrate profiles. […]

Series [4] has as its system UPF1. Nature of the series: Western blot of UPF1 CP generation in MDCK cells. Particulars: 2 μM staurosporine. The class given is cell-based, canine. As to the method:
as §1
(§3) Cells were lysed, and protein was isolated using hypotonic buffer that consists of 10 mM Tris-C1, pH 7.4, 10 mM NaCl, 2 mM EDTA, 0.5% Triton X-100, 2 mM benzamidine, 1 mM PMSF, NEM (50 μg/mL), 1× phosphatase inhibitor cocktail (Roche), and 1× protease inhibitor cocktail (Roche; Basel, Switzerland). […] Immunoreactivity was assessed using SuperSignal West Pico or Femto (Pierce Biotechnology; Waltham, Mass.).

Series [5] has as its system UPF1. Nature of the series: Western blot of UPF1 CP generation in COS-7 cells. The class given is cell-based, African green monkey. Particulars: COS-7, 2 μM staurosporine or 2 μg/mL doxorubicin. As to the method: as §1, §3
Series [6] has as its system UPF1. In words: Western blot of UPF1 CP generation in MDBK cells. The note with it: 2 μM staurosporine. The series is classed as cell-based, bovine. As to the method: as §1, §3
Series [7] concerns UPF1. In words: Western blot of UPF1 CP generation in Jurkat T cells. The class given is cell-based, human. Particulars: 1 μM staurosporine. As to the method:
as §1, §2

In series [8] the test system is UPF1. In words: Western blot of UPF1 CP generation in CHO cells. The series is classed as cell-based, Chinese hamster. Particulars: 2 μM staurosporine. As to the method:
as §1, §3

The subject of series [9] is UPF1. In words: Western blot of UPF1 CP generation in Daudi B lymphoblasts. The note with it: 40 ng/mL TNF-α or 2 μg/mL doxorubicin. The series is classed as cell-based, human. As to the method: as §1, §2
The target of another series is T1, MYC-UPF1-FLAG WT, Q92900.
T1 chain: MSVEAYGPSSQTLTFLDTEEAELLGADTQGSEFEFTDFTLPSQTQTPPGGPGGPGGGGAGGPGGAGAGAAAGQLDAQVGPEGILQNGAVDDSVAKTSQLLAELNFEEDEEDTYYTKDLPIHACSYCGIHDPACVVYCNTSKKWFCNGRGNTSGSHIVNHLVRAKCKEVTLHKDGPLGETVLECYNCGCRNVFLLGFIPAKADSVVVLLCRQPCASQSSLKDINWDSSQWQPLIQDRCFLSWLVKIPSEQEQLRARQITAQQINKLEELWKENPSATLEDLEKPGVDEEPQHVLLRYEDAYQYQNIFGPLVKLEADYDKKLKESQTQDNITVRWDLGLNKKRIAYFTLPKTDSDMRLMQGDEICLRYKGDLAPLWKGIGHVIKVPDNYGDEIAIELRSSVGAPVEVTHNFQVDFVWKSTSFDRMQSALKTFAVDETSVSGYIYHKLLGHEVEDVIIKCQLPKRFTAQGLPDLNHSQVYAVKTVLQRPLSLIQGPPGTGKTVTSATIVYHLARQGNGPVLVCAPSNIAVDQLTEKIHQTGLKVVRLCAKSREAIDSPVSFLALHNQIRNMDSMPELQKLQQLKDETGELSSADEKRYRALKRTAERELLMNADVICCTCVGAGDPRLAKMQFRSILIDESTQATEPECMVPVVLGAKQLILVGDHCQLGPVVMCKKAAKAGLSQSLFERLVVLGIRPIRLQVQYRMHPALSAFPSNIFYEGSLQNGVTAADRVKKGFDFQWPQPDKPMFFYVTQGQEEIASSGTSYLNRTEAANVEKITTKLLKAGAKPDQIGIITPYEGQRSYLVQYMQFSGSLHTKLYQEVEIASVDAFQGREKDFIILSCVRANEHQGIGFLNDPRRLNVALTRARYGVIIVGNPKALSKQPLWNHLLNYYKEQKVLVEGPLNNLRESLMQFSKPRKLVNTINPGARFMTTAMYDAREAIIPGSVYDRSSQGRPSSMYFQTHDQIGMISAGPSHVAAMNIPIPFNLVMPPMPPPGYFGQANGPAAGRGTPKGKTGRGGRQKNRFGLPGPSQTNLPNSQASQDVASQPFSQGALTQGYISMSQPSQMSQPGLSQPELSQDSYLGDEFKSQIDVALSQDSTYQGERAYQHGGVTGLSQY

As to Z-VAD-fmk, the “level of UPF1 CP after caspase inhibitor” value with caspases is listed as “nearly undetectable”.

Consider `C[C@@H]1C[C@@H]([C@H](O)CC2CC(=O)NC(=O)C2)C(=O)[C@@H](C)C1` [CHX, cycloheximide], for which the “UPF1 CP generation” value in the series with UPF1 [1] was “Generation of the UPF1 CP prior to full CASP9 and CASP3 cleavage”; in the series with UPF1 [2], “generated a UPF1 CP prior to maximal CASP3 cleavage”. In addition, the “UPF1 CP level relative to uncleaved UPF1” value in the series with UPF1 [3] (HeLa expressing UPF1 WT, D27N or D75N, 300 μg/mL CHX, anti-FLAG immunoblot) was “about one-third the level of uncleaved UPF1”.

As for `COc1cc([C@@H]2c3cc4c(cc3[C@@H](O[C@@H]3O[C@@H]5CO[C@@H](C)O[C@H]5[C@H](O)[C@H]3O)[C@H]3COC(=O)[C@H]23)OCO4)cc(OC)c1O` [ETP, etoposide], the “UPF1 CP generation” value in the series on UPF1 [2] is “generated a UPF1 CP prior to maximal CASP3 cleavage”; in the series with UPF1 [3] (HeLa, ETP 44 μM 6 h), “induced generation of a UPF1 CP before full induction of cleaved initiator caspase 9 (CASP9) and cleaved executioner CASP3”.

For `CN[C@@H]1C[C@H]2O[C@@](C)([C@@H]1OC)n1c3ccccc3c3c4c(c5c6ccccc6n2c5c31)C(=O)NC4` [staurosporine], the “UPF1 CP generation” value with UPF1 [4] is “led to UPF1 CP production”; in the series with UPF1 [1], “yielded two UPF1 CPs, prior to full cleavage of CASP9 and CASP3”; with UPF1 [5], “yielded a UPF1 CP”; in the series on UPF1 [6], “led to UPF1 CP production”; with UPF1 [7] it was “yielded a UPF1 CP prior to maximal cleavage of CASP3 or PARP”; in the series on UPF1 [8], “led to UPF1 CP production”.

For the molecule TNF-α, the “UPF1 CP generation” value in the series on UPF1 [9] was “led to generation of the UPF1 CP prior to maximal PARP cleavage”.

Turning to Z-DEVD-fmk, in the series on caspases, the “level of UPF1 CP after caspase inhibitor” value is “nearly undetectable”.

B1: Active recombinant Caspase 3 (protein)
chain: SGISLDNSYKMDYPEMGLCIIINNKNFHKSTGMTSRSGTDVDAANLRETFRNLKYEVRNKNDLTREEIVELMRDVSKEDHSKRSSFVCVLLSHGEEGIIFGTNGPVDLKKITNFFRGDRCRSLTGKPKLFIIQACRGTELDCGIETDSGVDDDMACHKIPVEADFLYAYSTAPGYYSWRNSKDGSWFIQSLCAMLKQYADKLEFMHILTRVNRKVATEFESFSFDATFHAKKQIPCIVSMLTKELYFYH
Take B1: the “in vitro caspase cleavage, western blot” value with MYC-UPF1-FLAG WT, Q92900 was “CASP3 and CASP7 cleaved MYC-UPF1-FLAG WT”.

B2: Active recombinant Caspase 7 (protein)
chain: AKPDRSSFVPSLFSKKKKNVTMRSIKTTRDRVPTYQYNMNFEKLGKCIIINNKNFDKVTGMGVRNGTDKDAEALFKCFRSLGFDVIVYNDCSCAKMQDLLKKASEEDHTNAACFACILLSHGEENVIYGKDGVTPIKDLTAHFRGDRCKTLLEKPKLFFIQACRGTELDDGIQADSGPINDTDANPRYKIPVEADFLFAYSTVPGYYSWRSPGRGSWFVQALCSILEEHGKDLEIMQILTRVNDRVARHFESQSDDPHFHEKKQIPCVVSMLTKELYFSQ
In the case of B2, the “in vitro caspase cleavage, western blot” value in the series with MYC-UPF1-FLAG WT, Q92900 was “CASP3 and CASP7 cleaved MYC-UPF1-FLAG WT”.
